The values that follow come from PMC6014988, “Precision therapeutic targeting of human cancer cell motility” (Nature Communications, 2018).

Like-named read-outs stand apart in the source and are kept apart here. Where only a bound is given, the exact number is not on record here.

The test system of one series is PC3. In words: Three-day MTT cell growth inhibition assay, PC3. The format is cell-based, human. To be noted: Homo sapiens, PC-3, 72 h, 3 days.
The nature of series [1]: Three-day MTT cell growth inhibition assay, PC3. In kind it is cell-based, human. To be noted: human, PC3 cells.
Another series relates to RAF1. In words: RAF1 protein expression, western blot. In kind it is cell-based, human. As to conditions: in cells. On the procedure:
Fig. 6 KBU2046-mediated changes in the signature of client proteins bound to the HSP90β/CDC37 heterocomplex mediate effects upon cell motility. a LUMIER assay. HEK293T cells were transfected with 1 of 420 different protein kinases, treated with 10 µM KBU2046 (N = 5 replicates) or vehicle control (N = 5) for 3 days, and LUMIER assays performed. The N = 17 kinases that gave significant findings (Student’s t-test <0.05) in the same direction in each of two separate experiments are depicted. […] All experiments were repeated at separate times at least once, with similar results
Western blots were performed as described by us[32]. All western blots were repeated at least once. Uncropped scans of the most important blots are depicted in Supplementary Fig. 19.

Series [2] has as its system 284 kinases and 20 phosphatases. Put plainly: KinaseProfiler and PhosphataseProfiler assay platforms. The format is biochemical. An excerpt: (§1) There were two initial false positives (for a false positive rate of 0.4%), that were subsequently found to be negative in a dedicated follow up analysis. Specific and important negative findings include MKK4, p38 MAPK (α, β, γ and δ […]
(§2) by competing for phospho-acceptor binding.
(§3) Kinase assay system #2. The Kinex™ kinase assay system (Kinexus Proteomics Company).
(§4) This platform uses recombinant human protein kinases expressed in an insect expression system, thus allowing an avenue for post-translational modification. Also, this platform measures inhibition of ATP binding. This platform putatively measured 200 different kinases, and we […]
(§5) tested KBU2046 at 1 and 10 μM. […] There were two […]
(§6) important technical issues. First, at 10 μM KBU2046 interfered with the colorimetric-based […]
(§7) However, while considering the above factors, this screen was informative for a number of […]
(§8) function by competing for ATP binding in the active site.
(§9) Kinase assay system #3. KinaseProfiler™ and PhosphataseProfiler™ assay platforms (Millipore). This platform is radiometric-based (considered gold standard). It measures competition with respect to ATP for kinases and substrate protein for phosphatases. Most proteins were expressed via an insect-based system, and it evaluates a panel of 284 kinases and 20 phosphatases. There were two initial false positives, for a false positive rate of 0.7%, but both […]

Series [3] is described as follows: Pharmacokinetics in CD1 mice, oral gavage and iv. In kind it is in vivo, mouse. On the procedure:
For determination of pharmacokinetic (PK) parameters, KBU2046 was administered by either intravenous injection or oral gavage to groups of N = 3 CD1(ICR) mice at 0 (i.e., vehicle only), 25, or 100 mg/kg. Blood was collected into EDTA by terminal cardiac puncture before drug administration (i.e., baseline) and at 5, 10, 15, 30, 45, 60, 90, 120, 180, 240, 360, 480, 960, 1440 min after administration. In separate experiments, as described above, Balb/c athymic mice were dosed with KBU2046 incorporated into chow for 35 days, after which blood was collected by terminal cardiac puncture. Resultant plasma (~250 μl/mouse) was stored at −80 °C.
Plasma KBU2046 concentrations were measured in duplicate by liquid chromatography-tandem mass spectrometry after sample preparation by solid-phase extraction. Specifically, 0.1 mL of a sample, 10 μL of 0.1 μg/mL internal standard solution (3-(2-chlorophenyl)-(4H-1-benzopyran-4-one, a chloride analog of KBU2046), 3800 μL of water, and 10 μl of 85% phosphoric acid were added, vortexed, and stored at 4 °C for 2 h. After washing a 96-well Strata-X 33 µm polymeric reversed phase 30 mg/well solid-phase extraction plate (Phenomenex) with methanol and water, sample was applied, washed with 20% methanol in water, eluted with 70% acetonitrile/30% methanol, dried at 50 °C under N2, reconstituted with 100 μL of mobile phase, and 20 µL was analyzed on an API 3000 liquid chromatography-tandem mass spectrometry system (Applied Biosystems) with an Agilent 1100 series HPLC system (Agilent Technologies). Samples were eluted isocratically from a Synergi 4-μm MAX-RP 100 Å column (2.0 × 50 mm; Phenomenex) by a mobile phase consisting of 10 mM ammonium formate in water and methanol (30:70 [vol/vol]) at a flow rate of 0.20 mL/min. The tandem mass spectrometer was operated with its electrospray source in the positive ionization mode. The mass-to-charge ratios of the precursor-to-product ion reactions monitored were 243.5 → 125.1 for KBU2046 and 257.0 → 165.0 for the internal standard. The retention time of KBU2046 was ~2.7 min while that of the internal standard was ~2.3 min. The linear range for plasma KBU2046 standard curves was 0.1–25.0 ng/mL, with coefficients of variation of 10% or less throughout the entire concentration range. Fresh plasma standard curves were prepared in blank plasma and run on the day of analysis of plasma samples.
Plasma KBU2046 concentration vs. time relationships after both intravenous and oral drug administration were modeled simultaneously using the SAAM II software system (SAAM Institute), implemented on a WindowsTM-based PC (see PK modeling schema). Plasma concentrations were modeled with a three-compartment PK model using a naive pooled data approach. Oral drug absorption was characterized by a tanks-in-series delay element, to account for the non-instantaneous appearance of drug in the body. Simultaneous estimation of PK model parameters for both routes of administration permitted estimation of the bioavailability of the orally administered drug (F)[41]. The SAAM II objective function used was the extended least-squares maximum likelihood function using data weighted with the inverse of the model-based variance of the data at the observation times. Model misspecification was sought by visual inspection of the measured and predicted marker concentrations vs. time relationships (Fig. 7)[42].

The test system of another series is 200 different kinases. In words: Kinex kinase assay system. As to conditions: 1 and 10 μM; 10 μM interfered with readout. The format is biochemical, human.
From the text: as §1, §2, §3, §4, §5, §6, §7, §8, §9

Setting [4] is: combined fit of both doses by both routes.

Take `O=C1c2ccccc2OCC1c1ccc(F)cc1` (racemic) [KBU2046, (±)-3(4-fluorophenyl)chroman-4-one]: in the series with PC3, the IC20 was more than 50 µM and the IC50 is more than 50 µM. The same compound came in with a viability at 3 days, 50 µM in series [1] of 88.1%. Besides, in the series with RAF1, the “RAF1 protein expression levels” value was “did not alter RAF1 protein expression levels”. Also, the “inhibition of phosphatase activity” value in series [2] (20 phosphatases) was “No evidence supports inhibition”. The “inhibition of kinase activity” value in series [2] (radiometric, 284 kinases) is given as “no evidence that KBU2046 inhibits”. Also, the clearance in series [3] (CD1(ICR), mouse, plasma, combined fit of both doses by both routes, read-out: Clearance, Elimination CLE) stood at 1.53 mL/min. Also, in series [3] (CD1(ICR), mouse, plasma, combined fit of both doses by both routes, read-out: Clearance, Fast CLF), the clearance was 0.61 mL/min. Moreover, the clearance in series [3] (CD1(ICR), mouse, plasma, combined fit of both doses by both routes, read-out: Clearance, Slow CLS) was 0.11 mL/min. Also, in series [3] (CD1(ICR), mouse, plasma, combined fit of both doses by both routes, read-out: Distribution volume, Total VSS), the Vd amounted to 0.0636 L. Moreover, the half-life in series [3] (CD1(ICR), mouse, plasma, combined fit of both doses by both routes, read-out: Elim Half-life (converted)) was 2.27 h. Further, the bioavailability in series [3] (CD1(ICR), mouse, plasma, 25 mg/kg by oral gavage) was found to be 4.6%. For the same compound, the bioavailability in series [3] (CD1(ICR), mouse, plasma, 100 mg/kg by oral gavage) amounted to 10.1%. Besides, in series [3] (setting [4]), the Absorption delay is listed as 32.3 min; the “Distribution volume, Central VC” value was determined as 19.3 mL; the “Distribution volume, Fast VF” value stood at 20.4 mL; the “Distribution volume, Slow VS” value stood at 23.9 mL. The “time plasma concentrations maintained >24 nM” value in series [3] (single oral dose) stood at 9.3 h. Moreover, in the series on 200 different kinases, the “inhibition of ATP binding” value is “completely negative”.

For orientation: IC20 means the concentration at which the effect reaches the 20% level. By IC50 is commonly meant the concentration that inhibits the measured activity by half. A high value points to a need for much substance. Broadly, the viability is a read-out of living cells in per cent, often relative to untreated cells. A lower viability goes with more harm to the cells. Usually half-life stands for how long it takes for the measured level to halve. Usually bioavailability stands for the share of a dose that reaches the circulation, judged against a reference dose that is usually intravenous.
